We go through 3 compounds from US6159932A, “Endoparasiticidal compositions” (Bayer Aktiengesellschaft, priority 1995, dated 2000).

Bounds are passed on as bounds.

One assay has as its system Heterakis spumosa. Nature of the assay: In vivo nematode test, Heterakis spumosa in the mouse. To be noted: oral. As for the experimental part:
Heterakis spumosa in the Mouse
Mice are infected experimentally with nematodes of the species Heterakis spumosa. For infection, the mice are administered orally with Heterakis spumosa as 90 embryonate eggs.
After the prepatency period has expired, the suspended active substances are administered orally on day 46 after infection.
(§1) Determination of the Activity
The mice are selected on day 54 after infection. The adult parasites are counted in the colon and caecum using a microscope. The success of treatment in the dose group is made relative to the untreated control group.

For a further assay, the system named is Ancylostoma caninum. Nature of the assay: In-vivo nematode test, Ancylostoma caninum in dogs. To be noted: oral. As to the method: Ancylostoma caninum in dogs
Beagle puppies were experimentally infested with hookworms (Ancylostoma caninum). Amount of infestation material were 250 L3 larvae.
After the prepatent period, when mature worms are present within the gastrointestinal tract, the dogs were orally treated with the test compounds as pure active in gelatine capsules.
Determination of the Efficacy was Carried Out According to the Following Two Methods
1. Counts of worm eggs within the dogs faces before and after treatment.
2. Percent efficacy at a critical test calculated using the formula: [formula]

Another assay concerns Nematospiroides dubius. Nature of the assay: In vivo nematode test, Nematospiroides dubius in the mouse. To be noted: oral. As to the method:
Nematospiroides dubius in the Mouse
Mice are infected experimentally with nematodes of the species Nematospiroides dubius. For infection, the mice are administered orally with Nematospiroides dubius as 60 filariform larvae.
After the prepatency period has expired, the suspended active substances are administered orally on day 12 after infection.
as §1
The mice are selected on day 20 after infection. The adult parasites in the Duodenum are counted by means of a compressor. The success of treatment in the dose group is made relative to the untreated control group.

The next assay relates to hookworm and whipworm. The settings on record: human medicine, high dosage on several days in succession; cited from earlier work.
Assay [1] deals with hookworm Uncinaria stenocephala. To be noted: 500 μg/kg, dogs; cited from earlier work.
[2] abbreviates: ivermectin B1a/B1b 0.1 mg/kg alone.

On to `CC(C)C[C@H]1C(=O)O[C@H](Cc2ccccc2)C(=O)N(C)[C@@H](CC(C)C)C(=O)O[C@H](C)C(=O)N(C)[C@@H](CC(C)C)C(=O)O[C@H](Cc2ccccc2)C(=O)N(C)[C@@H](CC(C)C)C(=O)O[C@H](C)C(=O)N1C` [PF 1022 A], for which the Reduction rate in the assay on Heterakis spumosa (PF 1022 A 5.0 mg/kg alone) is reported as 0%; with Heterakis spumosa (PF 1022 A 10.0 mg/kg alone), 0%; in the assay on Heterakis spumosa (PF 1022 A 25.0 mg/kg alone), 0%; with Heterakis spumosa (PF 1022 A 50.0 mg/kg alone), 0%; in the assay with Ancylostoma caninum (PF 1022 A 0,5 mg/kg alone), 0%; with Ancylostoma caninum (PF 1022 A 1,0 mg/kg alone), 100%. In addition, the Reduction rate with Nematospiroides dubius (PF 1022 A 25.0 mg/kg alone) and in the assay on Nematospiroides dubius (PF 1022 A 50.0 mg/kg alone) was 0% each time.
“22,23-dihydroavermectins B1a /B1b [Ivermectin B1a /B1b]”: the “efficacy in hookworm and whipworm infected patients” value in the assay on hookworm and whipworm is “ineffective”. Further, the Reduction rate is under 50% in the assay on Heterakis spumosa (setting [2]), 100% with Ancylostoma caninum (ivermectin B1a/B1b 0,01 mg/kg alone), 0% with Ancylostoma caninum (ivermectin B1a/B1b 0,001 mg/kg alone) and 0% with Nematospiroides dubius (setting [2]).
For Milbemycin, the “action against the hookworm Uncinaria stenocephala” value in assay [1] is recorded as “distinct weakness in its action”.
